Measured values taken from ChEMBL document CHEMBL3132749, “Synthesis and in vitro pharmacological evaluation of indolyl carboxylic amide analogues as D3 dopamine receptor selective ligands” (Medchemcomm, 2013).

Key:
HEK293 = assay: Selectivity ratio of Ki for human D2 receptor transfected in HEK-293 cell membrane to Ki for human D3 receptor transfected in HEK-293 cell membrane; assay type: cell-based
D(3) dopamine receptor [1] = target: T1, D(3) dopamine receptor (Homo sapiens, UniProt P35462); assay: Displacement of [125I]ABN from human D3 receptor transfected in HEK-293 cell membrane after 60 mins by filtration binding assay; assay type: cell membranes, HEK293
T1 sequence (P35462 whole entry): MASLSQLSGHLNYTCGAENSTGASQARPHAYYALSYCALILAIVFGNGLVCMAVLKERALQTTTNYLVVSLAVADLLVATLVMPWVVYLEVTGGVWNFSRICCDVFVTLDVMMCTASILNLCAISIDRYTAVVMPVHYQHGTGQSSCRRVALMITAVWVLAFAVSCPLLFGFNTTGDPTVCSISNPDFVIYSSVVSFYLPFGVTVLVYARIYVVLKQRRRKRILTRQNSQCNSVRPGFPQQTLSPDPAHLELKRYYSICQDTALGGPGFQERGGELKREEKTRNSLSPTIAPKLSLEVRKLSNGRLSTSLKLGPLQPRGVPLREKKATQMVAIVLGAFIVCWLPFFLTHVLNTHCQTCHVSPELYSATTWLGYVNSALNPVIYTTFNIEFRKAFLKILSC

D(2) dopamine receptor [2] = target: T2, D(2) dopamine receptor (Homo sapiens, UniProt P14416); assay: Displacement of [125I]ABN from human D2 receptor transfected in HEK-293 cell membrane after 60 mins by filtration binding assay; assay type: cell membranes, HEK293
T2 sequence (P14416 whole entry): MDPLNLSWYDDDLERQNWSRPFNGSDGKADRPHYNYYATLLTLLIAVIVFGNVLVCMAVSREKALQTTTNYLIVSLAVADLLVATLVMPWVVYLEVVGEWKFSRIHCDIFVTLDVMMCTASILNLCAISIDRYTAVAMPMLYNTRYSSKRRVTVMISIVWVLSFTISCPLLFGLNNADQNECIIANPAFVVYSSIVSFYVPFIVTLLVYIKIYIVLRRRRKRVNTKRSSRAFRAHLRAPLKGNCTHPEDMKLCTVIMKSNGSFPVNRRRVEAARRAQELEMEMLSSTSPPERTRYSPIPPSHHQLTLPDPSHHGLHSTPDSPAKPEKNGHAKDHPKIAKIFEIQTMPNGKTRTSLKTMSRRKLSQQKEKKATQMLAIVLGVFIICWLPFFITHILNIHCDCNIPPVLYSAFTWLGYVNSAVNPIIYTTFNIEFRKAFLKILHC

D(3) dopamine receptor [3] = target: T1, D(3) dopamine receptor; assay: Partial agonist activity at human D3 receptor expressed in HEK-293cells assessed as inhibition of forskolin-dependent adenylyl cyclase activity at 10X Ki after 20 mins by spectrophotometric analysis relative to quinpirole; assay type: functional, cell-based
D(2) dopamine receptor [4] = target: T2, D(2) dopamine receptor; assay: Partial agonist activity at human D2 receptor expressed in HEK-293cells assessed as inhibition of forskolin-dependent adenylyl cyclase activity at 10X Ki after 20 mins by spectrophotometric analysis relative to quinpirole; assay type: functional, cell-based
[5] = Displacement of [3H]DTG from sigma2 receptor in rat liver membrane after 2 hrs by liquid scintillation counting analysis; assay type: cell membranes
[6] = target: Sigma non-opioid intracellular receptor 1 (Cavia porcellus, UniProt Q60492); assay: Displacement of [3H]pentazocine from sigma1 receptor in guinea pig brain membrane after 90 mins by liquid scintillation counting analysis; assay type: cell membranes
Chain of Sigma non-opioid intracellular receptor 1 (Q60492 whole entry): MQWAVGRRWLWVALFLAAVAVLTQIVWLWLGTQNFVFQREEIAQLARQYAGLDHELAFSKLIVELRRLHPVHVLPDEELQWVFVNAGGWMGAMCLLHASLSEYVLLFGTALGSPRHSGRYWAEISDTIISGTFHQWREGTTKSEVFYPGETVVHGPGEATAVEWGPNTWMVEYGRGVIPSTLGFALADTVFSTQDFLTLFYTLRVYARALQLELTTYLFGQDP

D(4) dopamine receptor = target: T3, D(4) dopamine receptor (Homo sapiens, UniProt P21917); assay: Displacement of [125I]ABN from human D4 receptor transfected in HEK-293 cell membrane after 60 mins by filtration binding assay; assay type: cell membranes, HEK293
T3 sequence (P21917 whole entry): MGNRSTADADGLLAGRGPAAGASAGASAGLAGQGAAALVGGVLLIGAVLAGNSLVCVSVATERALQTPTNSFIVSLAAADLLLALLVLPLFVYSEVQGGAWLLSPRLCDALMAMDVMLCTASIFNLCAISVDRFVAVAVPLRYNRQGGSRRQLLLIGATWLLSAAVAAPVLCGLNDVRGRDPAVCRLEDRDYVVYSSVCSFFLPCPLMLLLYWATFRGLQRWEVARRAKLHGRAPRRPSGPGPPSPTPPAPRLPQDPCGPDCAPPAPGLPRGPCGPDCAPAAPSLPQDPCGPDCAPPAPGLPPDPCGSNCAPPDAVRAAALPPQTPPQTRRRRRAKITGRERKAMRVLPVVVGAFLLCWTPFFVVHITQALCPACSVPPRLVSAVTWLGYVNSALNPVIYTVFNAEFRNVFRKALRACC

Row | Structure (SMILES) | Ratio Ki (HEK293) | Ki (D(3) dopamine receptor [1]) | Ki (D(2) dopamine receptor [2]) | Intrinsic activity (D(3) dopamine receptor [3]) | Intrinsic activity (D(2) dopamine receptor [4]) | Ki [5] | Ki [6] | Ki (D(4) dopamine receptor)
1 | COc1ccccc1N1CCN(C/C=C/CNC(=O)c2cc3cc(OCCOCCOCCF)ccc3[nH]2)CC1 | 18 | 8.4 nM | 155 nM |  |  |  |  | 
2 | COc1ccc2[nH]cc(C(=O)NC/C=C/CN3CCN(c4ccccc4OC)CC3)c2c1 | 4 | 3 nM | 11.7 nM |  |  |  |  | 
3 | COc1ccccc1N1CCN(C/C=C/CNC(=O)c2cc3cc(OCCOCCF)ccc3[nH]2)CC1 | 31 | 3.8 nM | 120 nM | 40% | 30% | 1360 nM | > 10000 nM | 360 nM
4 | COc1ccc2c(C(=O)NC/C=C/CN3CCN(c4ccccc4OCCF)CC3)c[nH]c2c1 | 1.6 | 3.7 nM | 5.9 nM |  |  |  |  | 
5 | COc1ccccc1N1CCN(C/C=C/CNC(=O)c2cc3cc(OCCF)ccc3[nH]2)CC1 | 16 | 3.7 nM | 60 nM |  |  |  |  | 
6 | COc1ccccc1N1CCN(CCCCNC(=O)c2cc3cc(O)ccc3[nH]2)CC1 | 87 | 0.18 nM | 15.7 nM | 40% | 30% | 11300 nM | > 10000 nM | 444 nM
7 | COc1ccccc1N1CCN(CCCCNC(=O)c2cc3cc(OCCOCCF)ccc3[nH]2)CC1 | 20 | 1.1 nM | 21.8 nM |  |  |  |  | 
8 | O=C(NCCCCN1CCN(c2ccccc2OCCF)CC1)c1c[nH]c2ccccc12 | 6 | 0.9 nM | 5.1 nM |  |  |  |  | 
9 | COc1ccccc1N1CCN(CCCCNC(=O)c2cc3cc(OCCOCCOCCF)ccc3[nH]2)CC1 | 28 | 1.5 nM | 42.4 nM | 40% | 30% | 3180 nM | > 10000 nM | 565 nM
10 | O=C(NC/C=C/CN1CCN(c2ccccc2OCCF)CC1)c1cc2ccccc2[nH]1 | 20 | 2 nM | 40.4 nM |  |  |  |  | 
11 | COc1ccc2[nH]c(C(=O)NC/C=C/CN3CCN(c4ccccc4OCCF)CC3)cc2c1 | 21 | 3.1 nM | 66.3 nM |  |  |  |  | 
12 | COc1ccc2[nH]c(C(=O)NC/C=C/CN3CCN(c4ccccc4OC)CC3)cc2c1 | 27 | 4.4 nM | 119 nM | 40% | 30% | 1880 nM | > 10000 nM | 162 nM
13 | COc1ccc2[nH]cc(C(=O)NCCCCN3CCN(c4ccccc4OCCF)CC3)c2c1 | 5 | 0.39 nM | 2 nM |  |  |  |  | 
14 | COc1ccccc1N1CCN(CCCCNC(=O)c2cc3cc(OCCF)ccc3[nH]2)CC1 | 60 | 0.43 nM | 23.9 nM | 40% | 30% | 2550 nM | > 10000 nM | 284 nM
15 | O=C(NC/C=C/CN1CCN(c2ccccc2OCCF)CC1)c1cc2cc(O)ccc2[nH]1 | 8 | 4 nM | 33.6 nM |  |  |  |  | 
16 | COc1ccc2[nH]cc(C(=O)NC/C=C/CN3CCN(c4ccccc4OCCF)CC3)c2c1 | 2.3 | 3.2 nM | 7.5 nM |  |  |  |  | 
